Patent US20240132498A1, “CRYSTALLINE FORMS OF 5-(3,4-DIFLUOROBENZYL)-8-((1R,4R)-4-METHYLCYCLOHEXYL)-6,9-DIOXO-2,5,8-TRIAZASPIRO[3.5]NONANE-2-CARBALDEHYDE” (Cytokinetics, Incorporated, priority 2022, published 2024)
Values after ≈ are worked out from the molar mass of the structure shown. Where two headings read alike, the source gives them in different places.

Legend:
[1] = biological target: T1, CYP1A2 (Homo sapiens, UniProt P05177); assay: Time-dependent inhibition of CYP450 enzymes in human liver microsomes: CYP1A2; type: in vitro ADME
T1 construct: from tissue; host or cells: pooled human liver microsomes
T1 sequence (P05177 1-516): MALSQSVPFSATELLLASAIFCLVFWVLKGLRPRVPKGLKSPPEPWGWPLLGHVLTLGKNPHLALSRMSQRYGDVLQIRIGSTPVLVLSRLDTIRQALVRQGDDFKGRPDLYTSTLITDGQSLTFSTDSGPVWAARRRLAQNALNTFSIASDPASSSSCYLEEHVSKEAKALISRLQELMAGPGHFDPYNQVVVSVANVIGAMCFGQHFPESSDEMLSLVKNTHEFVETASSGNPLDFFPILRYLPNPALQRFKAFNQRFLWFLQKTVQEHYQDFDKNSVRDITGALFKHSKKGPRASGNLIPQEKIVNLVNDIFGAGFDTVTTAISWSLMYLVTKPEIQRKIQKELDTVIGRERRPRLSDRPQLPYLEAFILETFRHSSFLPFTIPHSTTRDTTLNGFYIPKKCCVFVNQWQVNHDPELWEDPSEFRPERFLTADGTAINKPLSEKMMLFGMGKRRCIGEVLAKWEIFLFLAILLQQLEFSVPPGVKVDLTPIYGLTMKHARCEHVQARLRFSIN
Experimental: An assessment of the time-dependent Inhibitory Potential of the test compounds against Principal Human Cytochrome P450 Isozymes using Human Liver Microsomes was also carried out using standard methods (Grimm et al, Drug Metab. Dispos., Jul; 37(7):1355-70. doi: 10.1124/dmd.109.026716, 2009). Pooled human microsomes and selective CYP probe substrates were used for in vitro assessment of test compounds at 25 and 50 μM as time-dependent inhibitors of […] human hepatic cytochrome P450 isozymes (CYP1A2, 2B6, 2C9, 2C19, 2D6, and 3A4). LC-MS/MS was used to quantify metabolite formation. The inhibition of each P450 enzyme in human liver microsomes was measured as the percentage decrease in the activity of marker metabolite formation as measured by LC-MS/MS compared to non-inhibited controls (=100% activity) at time zero and after 30 minutes incubation. The occurrence of any time dependent inhibition was then expressed as the fold change in enzyme activity at time zero relative to the activity after 30 minutes incubation. The time dependent inhibition for the compound 5-(3,4-difluorobenzyl)-8-((1 r,4r)-4-methylcyclohexyl)-6,9-dioxo-2,5, 8-triazaspiro [3.5]nonane-2-carbaldehyde (Compound 1) against CYP1A2, […], CYP2C8, CYP2C9, CYP2C19, CYP2D6, CYP3A4-M and CYP3A4-T is shown in Table B-12.

[2] = Long-term storage stability of the solid (1, 3, 6 months); type: physicochemical
Text: For long-term (1 month or longer) stability experiments, solid material was placed into LDPE bags and sealed in a HDPE container at elevated storage conditions, unless otherwise stated.

[3] = Kinetic solubility of crystalline Form II in solvents; type: physicochemical; details: for solubility at 4 h: 25 °C, thermodynamic from solid; for Solubility: 25° C., 4 hours
Experimental: The solubility of crystalline Form II was analyzed with 15 types of common solvents. Sufficient amount of Form II was suspended in 0.5 mL solvent for a maximum anticipated concentration of Ca. =10-100 mg/ml of the free Form II. The resulting suspensions were then shaken in a platform shaker at 25° C./ 750 rpm for 4 hours. After equilibration, the appearance was recorded, and the pH of the saturated solution was measured for aqueous samples only. Samples were then centrifuged for 5 minutes at 13.4 krpm before dilution with MeCN except for the samples that were initially diluted in n-heptane, which were then diluted in 2-propanol rather than MeCN.
All diluted samples were then analyzed by HPLC. Samples were further diluted based on appearance and the maximum anticipated concentration […]. All diluted samples were injected at 10, 15 and 20 piL to obtain peak areas within the calibration curve as a diluted concentration of Ca. 0.1 mg/ml was trying to be achieved.
Quantitation was measured by HPLC with reference to a standard solution of approximately 0.15 mg/ml in MeCN. Different volumes of the standard diluted and undiluted sample solutions were injected. The solubility was calculated using the peak areas determined by integration of the peak found at the same retention time as the principal peak in the standard injection.

C[C@H]1CC[C@H](N2CC(=O)N(Cc3ccc(F)c(F)c3)C3(CN(C=O)C3)C2=O)CC1 [Compound 1, 5-(3,4-difluorobenzyl)-8-((1r,4r)-4-methylcyclohexyl)-6,9-dioxo-2,5,8-triazaspiro[3.5]nonane-2-carbaldehyde]
(% Activity NADPH T0)/(% Activity NADPH T30) ([1]; CYP1A2, 25 μM): 1.1 | (% Activity NADPH T0)/(% Activity NADPH T30) ([1]; CYP1A2, 50 μM): 1.0 | activity at 30 min, 25 µM ([1]; human, pooled human liver microsomes, CYP1A2, 25 μM, 30 minutes incubation, read-out: % Activity NADPH T30): 90% | activity at 0 min, 25 µM ([1]; human, pooled human liver microsomes, CYP1A2, 25 μM, time zero, read-out: % Activity NADPH T0): 95% | activity at 30 min, 50 µM ([1]; human, pooled human liver microsomes, CYP1A2, 50 μM, 30 minutes incubation, read-out: % Activity NADPH T30): 85% | activity at 0 min, 50 µM ([1]; human, pooled human liver microsomes, CYP1A2, 50 μM, time zero, read-out: % Activity NADPH T0): 86%

C[C@H]1CC[C@H](N2CC(=O)N(Cc3ccc(F)c(F)c3)C3(CN(C=O)C3)C2=O)CC1 [Form II, 5-(3,4-difluorobenzyl)-8-((1r,4r)-4-methylcyclohexyl)-6,9-dioxo-2,5,8-triazaspiro[3.5]nonane-2-carbaldehyde]
Assay ([2]; 25° C./60% RH, 1 month): 99.0 % w/w | Purity ([2]; 25° C./60% RH, 1 month): 99.1% | Total Impurities ([2]; 25° C./60% RH, 1 month): 0.92% | Water Content ([2]; 25° C./60% RH, 1 month): 0.02 % w/w | Assay ([2]; 25° C./60% RH, 3 months): 98.8 % w/w | Purity ([2]; 25° C./60% RH, 3 months): 99.1% | Total Impurities ([2]; 25° C./60% RH, 3 months): 0.91% | Water Content ([2]; 25° C./60% RH, 3 months): 0.01 % w/w | Assay ([2]; 25° C./60% RH, 6 months): 99.2 % w/w | Total Impurities ([2]; 25° C./60% RH, 6 months): 0.93% | Water Content ([2]; 25° C./60% RH, 6 months): 0.09 % w/w | XRPD ([2]; 25° C./60% RH, 6 months): Form II | Assay ([2]; 40° C./75% RH, 1 month): 98.6 % w/w | Purity ([2]; 40° C./75% RH, 1 month): 99.1% | Total Impurities ([2]; 40° C./75% RH, 1 month): 0.92% | Water Content ([2]; 40° C./75% RH, 1 month): 0.01 % w/w | Assay ([2]; 40° C./75% RH, 3 months): 97.9 % w/w | Purity ([2]; 40° C./75% RH, 3 months): 99.1% | Total Impurities ([2]; 40° C./75% RH, 3 months): 0.9% | Water Content ([2]; 40° C./75% RH, 3 months): 0.01 % w/w | Assay ([2]; 40° C./75% RH, 6 months): 99.5 % w/w | Total Impurities ([2]; 40° C./75% RH, 6 months): 0.91% | Water Content ([2]; 40° C./75% RH, 6 months): 0.06 % w/w | XRPD ([2]; 40° C./75% RH, 6 months): Form II | Assay ([2]; Initial): 99.1 % w/w | Purity ([2]; Initial): 99.1% | Total Impurities ([2]; Initial): 0.91% | Water Content ([2]; Initial): 0.02 % w/w | XRPD ([2]; Initial): Form II | solubility at 4 h ([3]; 2-BuOH, organic solvent or mixture, 2-BuOH, read-out: Average Solubility): 11 mg/mL (≈ 27.1 mM) | solubility at 4 h ([3]; 2-BuOH, organic solvent or mixture, 2-BuOH, single replicate, read-out: Solubility): 11 mg/mL (≈ 27.1 mM) | solubility at 4 h ([3]; 2-Me-THF, organic solvent or mixture, 2-Me-THF, read-out: Average Solubility): 24 mg/mL (≈ 59.2 mM) | solubility at 4 h ([3]; 2-Me-THF, organic solvent or mixture, 2-Me-THF, single replicate, read-out: Solubility): 24 mg/mL (≈ 59.2 mM) | solubility at 4 h ([3]; Acetone, organic solvent or mixture, Acetone, single replicate, read-out: Solubility): > 101 mg/mL | solubility at 4 h ([3]; DI Water, pH 8.7, water, DI Water, final pH 8.7, read-out: Average Solubility): ~0.41 mg/mL (≈ 1.01 mM) | solubility at 4 h ([3]; DI Water, pH 8.7, water, DI Water, final pH 8.7, single replicate, read-out: Solubility): 0.5 mg/mL (≈ 1.23 mM) | Solubility ([3]; DI Water, final pH 8.7, single replicate): 0.31 mg/mL (≈ 0.765 mM) | solubility at 4 h ([3]; DMSO, organic solvent or mixture, DMSO, read-out: Average Solubility): > 100 mg/mL | solubility at 4 h ([3]; DMSO, organic solvent or mixture, DMSO, single replicate, read-out: Solubility): > 101 mg/mL | Solubility ([3]; DMSO, single replicate): >101.2 mg/mL | solubility at 4 h ([3]; EtOH, organic solvent or mixture, EtOH, read-out: Average Solubility): ~24 mg/mL (≈ 59.2 mM) | solubility at 4 h ([3]; EtOH, organic solvent or mixture, EtOH, single replicate, read-out: Solubility): 25 mg/mL (≈ 61.7 mM) | Solubility ([3]; EtOH, single replicate): 23 mg/mL (≈ 56.7 mM) | solubility at 4 h ([3]; IPA, organic solvent or mixture, IPA, read-out: Average Solubility): 9.8 mg/mL (≈ 24.2 mM) | solubility at 4 h ([3]; IPA, organic solvent or mixture, IPA, single replicate, read-out: Solubility): 9.8 mg/mL (≈ 24.2 mM) | solubility at 4 h ([3]; Isopropyl acetate, organic solvent or mixture, Isopropyl acetate, single replicate, read-out: Solubility): 22 mg/mL (≈ 54.3 mM) | solubility at 4 h ([3]; MIBK, organic solvent or mixture, MIBK, read-out: Average Solubility): 39 mg/mL (≈ 96.2 mM) | solubility at 4 h ([3]; MIBK, organic solvent or mixture, MIBK, single replicate, read-out: Solubility): 39 mg/mL (≈ 96.2 mM) | solubility at 4 h ([3]; MeCN, organic solvent or mixture, MeCN, read-out: Average Solubility): > 100 mg/mL | solubility at 4 h ([3]; MeCN, organic solvent or mixture, MeCN, single replicate, read-out: Solubility): > 101 mg/mL | Solubility ([3]; MeCN, single replicate): >100.6 mg/mL | solubility at 4 h ([3]; MeOH, organic solvent or mixture, MeOH, read-out: Average Solubility): > 100 mg/mL | solubility at 4 h ([3]; MeOH, organic solvent or mixture, MeOH, single replicate, read-out: Solubility): > 100 mg/mL | Solubility ([3]; MeOH, single replicate): >100.6 mg/mL | solubility at 4 h ([3]; THF, organic solvent or mixture, THF, read-out: Average Solubility): > 100 mg/mL | solubility at 4 h ([3]; THF, organic solvent or mixture, THF, single replicate, read-out: Solubility): > 102 mg/mL | Solubility ([3]; THF, single replicate): >101.2 mg/mL | solubility at 4 h ([3]; Tert-Butylmethyl ether, organic solvent or mixture, Tert-Butylmethyl ether, read-out: Average Solubility): 1.12 mg/mL (≈ 2.76 mM) | solubility at 4 h ([3]; Tert-Butylmethyl ether, organic solvent or mixture, Tert-Butylmethyl ether, single replicate, read-out: Solubility): 1.12 mg/mL (≈ 2.76 mM) | solubility at 4 h ([3]; Toluene, organic solvent or mixture, Toluene, read-out: Average Solubility): 9.6 mg/mL (≈ 23.7 mM) | solubility at 4 h ([3]; Toluene, organic solvent or mixture, Toluene, single replicate, read-out: Solubility): 9.5 mg/mL (≈ 23.4 mM) | Solubility ([3]; Toluene, single replicate): 9.6 mg/mL (≈ 23.7 mM) | solubility at 4 h ([3]; acetone, organic solvent or mixture, Acetone, read-out: Average Solubility): > 100 mg/mL | solubility at 4 h ([3]; isopropyl acetate, organic solvent or mixture, Isopropyl acetate, read-out: Average Solubility): 22 mg/mL (≈ 54.3 mM)
